# Measurements from patent US6887889B2 (Pharmacopeia Drug Discovery, Inc., priority 2001, dated 2005).
# Biological target: T1, hMCHR (Homo sapiens, UniProt Q99705)
# T1 construct: host or cells: CHO (Chinese hamster ovary) cells, membranes
# Assay: MCH Assay PCOP Protocol: [125I]-MCH binding to hMCHR-CHO membranes, WGA-SPA beads
# Details: hMCHR-CHO overexpressing membranes, 0.5 nM [125I]-MCH, 2 hours incubation
# Procedure: A reaction mixture of 10 μg hMCHR-CHO overexpressing membranes (from Receptor Biology, Inc., Beltville, Md., or internally produced) and 100 μg/well WGA-SPA beads (from Amersham Pharmacia Biotech, Inc., Piscataway, N.J.)/100 μL was prepared in MCHR assay buffer (25 mM HEPES, pH 7.4, 10 mM NaCl, 10 mM MgCl2, 5 mM MnCl2, 0.1%BSA). […] The assay plates were shaken for 5 minutes on a plate shaker, then incubated for 2 hours before cpm/well were determined in a Microbeta Trilux counter (from Perkin Elmer Wallac, Inc., Gaithersburg, Md.).
# T1 sequence (Q99705 whole entry): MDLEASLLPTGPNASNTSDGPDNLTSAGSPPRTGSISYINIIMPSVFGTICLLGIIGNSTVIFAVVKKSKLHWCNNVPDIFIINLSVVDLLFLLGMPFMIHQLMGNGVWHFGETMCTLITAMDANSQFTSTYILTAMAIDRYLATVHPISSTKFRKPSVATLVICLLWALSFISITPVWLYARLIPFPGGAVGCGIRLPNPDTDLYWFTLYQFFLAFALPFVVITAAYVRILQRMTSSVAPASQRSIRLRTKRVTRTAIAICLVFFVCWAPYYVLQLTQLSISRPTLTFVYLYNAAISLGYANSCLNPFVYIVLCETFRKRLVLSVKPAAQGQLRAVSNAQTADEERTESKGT
row,Molecule,Ki [nM]
1,3-Chloro-N-[4-(3′-cyano-biphenyl-4-yl)-1-cyclopropylmethyl-piperidin-4-ylmethyl]-4-fluoro-benzenesulfonamide [Example 11],101 to 5500
2,"CC(C)CN1CCC(CNC(=O)Nc2cc(Cl)cc(Cl)c2)(c2ccc(-c3cccc(C#N)c3)cc2)CC1 [Example 7, 1-[4-(3′-Cyano-biphenyl-4-yl)-1-isobutyl-piperidin-4-ylmethyl]-3-(3,5-dichloro-phenyl)-urea]",11 to 100
3,"CN1CCC(CNC(=O)Nc2ccc(F)cc2F)(c2ccc(-c3cccc(C#N)c3)cc2)CC1 [Example 9, 1-[4-(3′-Cyano-biphenyl-4-yl)-1-methyl-piperidin-4-ylmethyl]-3-(2,4-difluoro-phenyl)-urea]",0.2 to 10
4,"N#Cc1cccc(-c2ccc(C3(CNC(=O)Cc4cc(F)cc(F)c4)CCN(CC4CC4)CC3)cc2)c1 [Example 10, N-[4-(3′-Cyano-biphenyl-4-yl)-1-cyclopropylmethyl-piperidin-4-ylmethyl]-2-(3.5-difluoro-phenyl)-acetamide]",101 to 5500
5,"CC(C)COC(=O)NCC1(c2ccc(-c3cccc(C#N)c3)cc2)CCN(CC2CC2)CC1 [Example 12, [4-(3′-Cyano-biphenyl-4-yl)-1-cyclopropylmethyl-piperidin-4-ylmethyl]-carbamic acid isobutyl ester]",101 to 5500
6,CN1CCC(CN2CCN(c3ccc(F)c(F)c3)C2=O)(c2ccc(-c3cccc(C#N)c3)cc2)CC1 [Example 13],11 to 100
7,"CN(CC1(c2ccc(-c3cccc(C#N)c3)cc2)CCN(CC2CC2)CC1)C(=O)Nc1cc(Cl)cc(Cl)c1 [Example 14, 1-[4-(3′-Cyano-biphenyl-4-yl)-1-cyclopropylmethyl-piperidin-4-ylmethyl]-3-(3,5-dichloro-phenyl)-1-methyl-urea]",0.2 to 10
8,"CN1CCC(C(=O)Nc2cc(Cl)cc(Cl)c2)(c2ccc(-c3cccc(C#N)c3)cc2)CC1 [Example 15, 4-(3′-Cyano-biphenyl-4-yl)-1-methyl-piperidine-4-carboxylic acid (3.5-dichloro-phenyl)-amide]",101 to 5500
9,"CN1CCC(C(=O)NCc2cc(Cl)cc(Cl)c2)(c2ccc(-c3cccc(C#N)c3)cc2)CC1 [Example 16, 4-(3′-Cyano-biphenyl-4-yl)-1-methyl-piperidine-4-carboxylic acid 3,5-dichloro-benzylamide]",101 to 5500
10,"CN1CCC2(CC1)CN(C(=O)Nc1ccc(F)c(Cl)c1)c1cc(-c3cccc(C#N)c3)ccc12 [Example 17, 1-(3-Chloro-4-fluorophenyl)ureido-6-(3-cyanophenyl)-1′-methyl-spiro[indoline-3,4′-piperidine]]",101 to 5500
11,O=C(NCC1(c2ccc(-c3cccnc3)cc2)CCN(C2CCCC2)CC1)Nc1cc(Cl)cc(Cl)c1 [Example 20],0.2 to 10
12,Cc1ccc(C2(CNC(=O)Nc3cc(Cl)cc(Cl)c3)CCNCC2)cc1 [Example 23],101 to 5500
13,CN1CCC(CNC(=O)Nc2cc(Cl)cc(Cl)c2)(c2cccc(Cl)c2)CC1 [Example 24],101 to 5500
14,Cc1ccc(C2(CNC(=O)Nc3cc(Cl)cc(Cl)c3)CCN(CC3CC3)CC2)cc1 [Example 25],101 to 5500
15,Cc1ccc(C2(CNC(=O)Nc3cc(Cl)cc(Cl)c3)CCN(C3CCCC3)CC2)cc1 [Example 26],101 to 5500
16,CCCN1CCC(CNC(=O)Nc2cc(Cl)cc(Cl)c2)(c2ccc(C)cc2)CC1 [Example 27],101 to 5500
17,CN1CCC(CNC(=O)Nc2ccc(F)c(F)c2)(c2ccc(-c3cccnc3)cc2)CC1 [Example 30],11 to 100
18,CN(C)S(=O)(=O)N1CCC(CNC(=O)Nc2cc(Cl)cc(Cl)c2)(c2ccc(-c3cccc(C#N)c3)cc2)CC1 [Example 31],11 to 100
19,COCCN1CCC(CNC(=O)Nc2cc(Cl)cc(Cl)c2)(c2ccc(-c3ccc4c(c3)OCO4)cc2)CC1 [Example 33],11 to 100
20,COCCN1CCC(CNC(=O)Nc2cc(Cl)cc(Cl)c2)(c2ccc(-c3cccc(Cl)c3)cc2)CC1 [Example 35],0.2 to 10
21,CN1CCC(CNC(=O)Nc2ccc(Cl)cc2Cl)(c2ccc(-c3cccc(C#N)c3)cc2)CC1 [Example 36],11 to 100

row,Molecule,Ki [nM]
1,CN1CCC2(CC1)CN(C(=O)Nc1cc(Cl)cc(Cl)c1)c1ccc(-c3cccc(C#N)c3)cc12 [Example 37],11 to 100
2,CN1CCC(CN(C)C(=O)Nc2cc(Cl)cc(Cl)c2)(c2ccc(-c3cccc(C#N)c3)cc2)CC1 [Example 38],0.2 to 10
3,CN1CCC(CNC(=O)Nc2cc(Cl)cc(Cl)c2)(c2ccc(-c3cc4ccccc4o3)cc2)CC1 [Example 40],101 to 5500
4,CN1CCC(CNC(=O)Nc2cc(Cl)cc(Cl)c2)(c2ccc(-c3cccc(N)c3)cc2)CC1 [Example 41],11 to 100
5,CN1CCC(CNC(=O)Nc2cc(Cl)cc(Cl)c2)(c2ccc(-c3ccc4c(c3)OCO4)cc2)CC1 [Example 43],0.2 to 10
6,COc1ccc(-c2ccc(C3(CNC(=O)Nc4cc(Cl)cc(Cl)c4)CCN(C)CC3)cc2)cn1 [Example 44],11 to 100
7,CCCN1CCC2(CC1)CN(C(=O)Nc1ccc(Cl)c(Cl)c1)c1ccc(-c3cccc(C#N)c3)cc12 [Example 45],101 to 5500
8,CCCN1CCC2(CC1)CN(C(=O)Nc1ccc(F)c(Cl)c1)c1ccc(-c3cccc(C#N)c3)cc12 [Example 46],101 to 5500
9,CCCN1CCC(CNC(=O)Nc2ccc(Cl)cc2C(F)(F)F)(c2ccc(-c3cccc(C#N)c3)cc2)CC1 [Example 47],11 to 100
10,O=C(NCC1(c2ccc(-c3cccc(Cl)c3)cc2)CCN(CC2CC2)CC1)Nc1ccc(Cl)cc1C(F)(F)F [Example 48],101 to 5500
11,O=C(NCC1(c2ccc(-c3cccc(Cl)c3)cc2)CCN(CC2CC2)CC1)Nc1ccc(F)c(Cl)c1 [Example 49],0.2 to 10
12,N#Cc1cccc(-c2ccc(C3(CNC(=O)Nc4ccc(Cl)c(C(F)(F)F)c4)CCN(CC4CC4)CC3)cc2)c1 [Example 50],0.2 to 10
13,CN1CCC(CNC(=O)Nc2ccc(Cl)c(C(F)(F)F)c2)(c2ccc(-c3cccc(Cl)c3)cc2)CC1 [Example 51],0.2 to 10
14,CCCN1CCC(CNC(=O)Nc2ccc(Cl)cc2C(F)(F)F)(c2ccc(-c3cccc(Cl)c3)cc2)CC1 [Example 52],101 to 5500
15,CN1CCC(CNC(=O)Nc2cc(F)cc(F)c2)(c2ccc(-c3cccc(Cl)c3)cc2)CC1 [Example 55],0.2 to 10
16,CN1CCC(CNC(=O)Nc2cc(C(F)(F)F)ccc2Cl)(c2ccc(-c3cccc(Cl)c3)cc2)CC1 [Example 57],11 to 100
17,CCCN1CCC(CNC(=O)Nc2cc(C(F)(F)F)ccc2Cl)(c2ccc(-c3cccc(Cl)c3)cc2)CC1 [Example 58],101 to 5500
18,CN1CCC(CNC(=O)Nc2ccc(Cl)cc2C(F)(F)F)(c2ccc(-c3cccc(Cl)c3)cc2)CC1 [Example 59],101 to 5500
19,N#Cc1cccc(-c2ccc(C3(CNC(=O)Nc4ccc(Cl)cc4C(F)(F)F)CCN(CC4CC4)CC3)cc2)c1 [Example 60],101 to 5500
20,O=C(NCC1(c2ccc(-c3cccc(Cl)c3)cc2)CCN(CC2CC2)CC1)Nc1ccc(Cl)c(C(F)(F)F)c1 [Example 61],11 to 100
21,CN1CCC(CNC(=O)Nc2ccccc2)(c2ccc(-c3cccc(Cl)c3)cc2)CC1 [Example 62],0.2 to 10

row,Molecule,Ki [nM]
1,CCCN1CCC(CNC(=O)Nc2cc(C(F)(F)F)ccc2Cl)(c2ccc(-c3cccc(C#N)c3)cc2)CC1 [Example 63],11 to 100
2,CCCN1CCC(CNC(=O)Nc2ccc(Cl)c(C(F)(F)F)c2)(c2ccc(-c3cccc(Cl)c3)cc2)CC1 [Example 64],11 to 100
3,CCCN1CCC(CNC(=O)Nc2ccc(F)c(Cl)c2)(c2ccc(-c3cccc(C#N)c3)cc2)CC1 [Example 65],0.2 to 10
4,CN1CCC(CNC(=O)Nc2ccc(Cl)cc2C(F)(F)F)(c2ccc(-c3cccc(C#N)c3)cc2)CC1 [Example 67],101 to 5500
5,N#Cc1cccc(-c2ccc(C3(CNC(=O)Nc4cc(C(F)(F)F)ccc4Cl)CCN(CC4CC4)CC3)cc2)c1 [Example 68],11 to 100
6,CN1CCC(CNC(=O)Nc2cc(C(F)(F)F)ccc2Cl)(c2ccc(-c3cccc(C#N)c3)cc2)CC1 [Example 69],11 to 100
7,O=C(NCC1(c2ccc(-c3cccc(Cl)c3)cc2)CCN(CC2CC2)CC1)Nc1cc(Cl)cc(Cl)c1 [Example 70],0.2 to 10
8,CCCN1CCC(CNC(=O)Nc2ccc(Cl)c(C(F)(F)F)c2)(c2ccc(-c3cccc(C#N)c3)cc2)CC1 [Example 71],0.2 to 10
9,CN1CCC(CNC(=O)c2cc(Cl)cc(Cl)c2)(c2ccc(-c3cccc(Cl)c3)cc2)CC1 [Example 72],101 to 5500
10,O=C(NCC1(c2ccc(-c3cccc(Cl)c3)cc2)CCN(CC2CC2)CC1)Nc1cc(C(F)(F)F)ccc1Cl [Example 73],101 to 5500
11,CCCN1CCC(CNC(=O)Nc2cc(Cl)cc(Cl)c2)(c2ccc(-c3cccc(Cl)c3)cc2)CC1 [Example 74],0.2 to 10
12,CN1CCC2(CC1)CN(C(=O)Nc1ccc(F)c(Cl)c1)c1cccc(-c3cccc(C#N)c3)c12 [Example 75],101 to 5500
13,O=C(NCC1(c2ccc(-c3cccc(Cl)c3)cc2)CCN(C2CCCC2)CC1)Nc1cc(Cl)cc(Cl)c1 [Example 77],0.2 to 10
14,CN1CCC(CNC(=O)Nc2cc(Cl)cc(Cl)c2)(c2ccc(-c3ccc4[nH]ccc4c3)cc2)CC1 [Example 78],101 to 5500
15,CC(=O)Nc1cccc(-c2ccc(C3(CNC(=O)Nc4cc(Cl)cc(Cl)c4)CCN(C(C)C)CC3)cc2)c1 [Example 79],0.2 to 10
16,CC(=O)c1cccc(-c2ccc(C3(CNC(=O)Nc4cc(Cl)cc(Cl)c4)CCN(C(C)C)CC3)cc2)c1 [Example 80],11 to 100
17,O=C(NCC1(c2ccc(-c3ccc4c(c3)OCO4)cc2)CCN(C2CCCC2)CC1)Nc1cc(Cl)cc(Cl)c1 [Example 81],0.2 to 10
18,CC(C)N1CCC(CNC(=O)Nc2cc(Cl)cc(Cl)c2)(c2ccc(-c3ccc4c(c3)OCO4)cc2)CC1 [Example 82],0.2 to 10
19,CC(C)N1CCC(CNC(=O)Nc2cc(Cl)cc(Cl)c2)(c2ccc(-c3cccc(Cl)c3)cc2)CC1 [Example 83],0.2 to 10
